Where a name gives a salt, the structure may show the parent alone. Peptide text beside a SMILES is read from it.
Key:
[1] = system: primary human fibroblasts; assay type: cell-based; conditions: confluent primary human fibroblasts treated prior to rAAV infection; FACS at 96 hours post-infection
Description: Initial studies were performed in confluent primary human fibroblasts since dose titrations and toxicity could be quickly assessed. Selected agents were used to treat fibroblast monolayers prior to rAAV infection. rAAV transduction was assessed at 96 hours post-infection by FACS analysis, and the percentage of dead cells was simultaneously assessed by incorporation of propidium iodide.
These tripeptides are structurally related to chloroquine but have different lipid solubility and specificity for cysteine proteases (Seglen, 1983). These molecules decrease endosomal degradation of molecules by a mechanism different than altering pH.

[2] = system: polarized human airway epithelial cells; assay type: cell-based; conditions: for rAAV transduction from the basolateral surface: both ubiquitin ligase inhibitors combined, 2 mM pretreatment, 0.2 mM during infection; for rAAV transduction from the apical surface: data not shown
Description: Primary culture of human bronchial epithelia and reagents utilized. Primary human airway epithelial cells were collected by enzymatic digestion of bronchial samples from lung transplants, as previously described (Kondo et al., 1991; Zabner et al., 1996). Isolated primary airway cells were seeded at a density of 5×10^5 cells/cm^2 onto collagen-coated Millicell-HA culture inserts (Millipore Corp., Bedford, Mass.). Primary cultures were grown at the air-liquid interface for more than 2 weeks, by which time differentiation into a mucociliary epithelium occurs. The culture medium, used to feed only the basolateral side of the cells, contained 49% DMEM, 49% Ham's F12 and 2% Ultraser G (BioSepra, Cedex, France). Dimethyl Sulphoxide (DMSO), camptothecin (Camp), etoposide (Etop), aphidicolin (Aphi), hydroxyurea (HU) and genistein (Geni) were purchased from Sigma (St. Louis, Mo.). Tripeptidyl aldehyde proteasome inhibitors N-Acetyl-L-Leucyl-L-Leucyl-Norleucine (LLnL) and benzyloxycarbonyl-L-leucyl-L-leucyl-L-leucinal (Z-LLL) were purchased from Calbiochem-Novabiochem Corporation (La Jolla, Calif.). Ubiquitin ligase (E3) inhibitors were obtained from Bachem Bioscience Inc. (King of Prussia, Pa.). Anti-AAV capsid monoclonal antibody (Anti-VP1, 2 and 3) was purchased from American Research Products (Belmont, Mass.) and anti-ubiquitin antibody was purchased from Santa Cruz Biotechnology Inc. (Santa Cruz, Calif.).
Transduction of polarized airway epithelial cells and primary human fibroblasts. rAAV infection of fully differentiated bronchial cells was performed as described in Duan et al. (1998). For infections from the apical surface of the airway cells, 5 μl rAAV was mixed with 50 μl of culture media and applied directly onto the apical compartment of Millicell inserts (MOI=10,000 particles/cell). During apical infection, the basolateral side of the Millicell was continuously bathed in culture media. Gene transfer to the basal side was performed by inverting Millicell inserts and applying viral vector to the bottom of the supporting filter membrane in a 50 μl volume for 2 hours. Subsequently, Millicell inserts were returned to the upright position, in the continued presence of the original viral inoculum plus an additional 450 μl of media. For both apical and basolateral infections, rAAV containing media was removed after 24 hours and replaced with either fresh culture media (for the basal side) or exposed to air (for the apical side). To test the effect of different agents on the efficiency of AAV transduction in polarized airway cells, 1 μl of each solution was mixed with AAV prior to infection of airway epithelia. Agents were usually presented during the 24 hours AAV infection period unless indicated otherwise. Most of the agents were dissolved in DMSO except for hydroxyurea (dissolved in phosphate buffered saline), H-Leu-Ala-OH (dissolved in 0.9% glacial acetic acid) and H-His-Ala-OH (dissolved in 50% methanol). The working concentrations of the agents were as follows: 0.1 μM camptothecin, 10 μM etoposide, 5 μg/ml aphidicolin, 40 mM hydroxyurea, 50 μM genistein, 40 μM LLnL and 4 μM Z-LLL. When the ubiquitin ligase (E3) inhibitors (H-Leu-Ala-OH and H-His-Ala-OH) were used, airway cells were pretreated with a combination of both inhibitors at a final concentration of 2 mM for 60 minutes prior to infection, followed by the continued presence of inhibitor (0.2 mM) during the entire 24 hours infection period from the basolateral surface. Studies involving EGTA treatment were performed by transiently treating the apical membrane of polarized airway epithelia with 3 mM EGTA in water for 10 minutes (Duan et al., 1998). Following hypotonic EGTA treatment, cultures were washed twice with culture medium and infected with rAAV in the presence or absence of 40 μM LLnL. Human primary fibroblast cells (P4) were maintained in 10% fetal bovine serum (FBS), 1% penicillin and streptomycin, and 89% DMEM. […]

[3] = system: HeLa cells; test: AAV2 FLAG-Luc transduction of HeLa cells (luciferase screen); assay type: cell-based, human; conditions: for increase in transduction efficiency: at the doses tested, MOI 100, 2 hours infection, harvest 48 hours; for dose dependence of transduction: dose ranges tested; for order of potency among anthracyclines: 0.6, 3 and 6 μg/mL
Text: A. To screen for agents that enhance rAAV transduction, any number of cells can be used. A range of concentrations of the agent to be tested can be determined based on, for instance desirable profiles of the agent, desirable toxicity profiles of the agent and/or concentration of the agents employed in vivo. The usefulness of the cell type chosen for the screen can be confirmed by testing compounds, e.g., proteasome inhibitors such as LLnL and ZLL which are known to increase rAAV transduction. For example, a AAV2 FLAG-Luc vector was employed to transduce HeLa, ferret fibroblasts, IB3 and Huh (liver) cells in the presence or absence of the proteasome inhibitor MG132. MG132 was confirmed to enhance AAV transduction in all cell types tested: HeLa cell transduction was enhanced about 500-fold at 80 μM, and 200-fold at 40 μM, MG132; ferret fibroblast cell transduction was enhanced about 200-fold at 20 μM, and 17-fold at 4 μM, MG132; IB3-1 cell transduction was enhanced about 30 to 70-fold at 20 to 80 μM MG132; and Huh-7 cell transduction was enhanced about 15-fold at 20 to 80 μM MG132. There was no difference in rAAV transduction efficiency in HeLa cells when either DMSO or ETOH was used as a vehicle for MG132. B. HeLa cells were selected to screen for additional agents that enhance rAAV transduction, although any cell strain or line; or primary cells, may be employed. […] The range of concentrations of the agents to be tested were selected based on solubility profiles, toxicity profiles and/or concentrations previously employed in vivo.
HeLa cells were infected for 2 hours with an MOI of 100 rAAV in the presence of agents, e.g., ritonavir (Norvir) (1, 10 and 100 μM), cyclosporin A (2.5, 25 and 250 μg/ml), epoxomicin (1, 10 and 50 μM), alcacinomycin A (5, 50 or 500 μM), chymostatin (1, 10 and 100 μM), bestatin (1, 10 and 100 μM), doxorubicin (adriamycin) (0.1, 1 and 10 μM), camptothecin (camptosar) (1, 10 and 100 μM), eicosapentanoic acid (1, 10 and 100 μM), tannic acid (2, 20, 200 and 2000 μM), simvastatin, prodrug (2, 20 and 200 μM), cisplatin (0.2, 2 and 20 μg/mL), and chloroquine (4, 40 and 400 μM). Forty-eight hours after infection, cells were harvested for analysis. rAAV transduction was measured by removing the media from the cell cultures, adding 100 μL reporter lysis buffer (RLB) and freezing. The supernatant was thawed and transferred to microfuge tubes, freeze thawed an additional 2 times, clarified by centrifugation for 10 minutes and then analyzed for reporter gene expression on the lumometer. Protein was determined by Bradford analysis and results were expressed as relative light units per mg protein (RLU/mg).
Based on results with doxorubicin, a small number of FDA approved anthracyclines were tested for their relative in vitro and in vivo activities on AAV transduction. HeLa cells were infected with 100 ppc AAV2FLAG-Luc for 2 hours in the presence of different anthracyclines, e.g., doxorubicin, daunarubicin (Cerubidine), epirubicin (Ellence™), and idarubicin (Idamycin®), and cells harvested 48 hours later. The anthracyclines were pharmaceutical grade, and prepared according to the manufacturer's instructions. Prior to use, the agents were diluted in sterile water to an equal mass, e.g., 0.6 μg/mL, 3 μg/mL and 6 μg/mL. For example, 3 μg/mL idamycin increased luciferase expression by over 5000-fold while doxorubin increased luciferase expression by 58-fold. Generally, the potency was as follows: idarubicin>daunarubicin>epirubicin>doxorubicin.

Q: For C[C@H]1CCC/C=C/[C@@H]2C[C@H](O)C[C@H]2[C@H](O)/C=C/C(=O)O1 [BFA, brefeldin A], which rAAV transduction [1] is on record?
A: significant enhancement of rAAV transduction

Q: For C[C@H](NC(=O)[C@@H](N)Cc1cnc[nH]1)C(=O)O [H-His-Ala-OH] (H-His-Ala-OH), which “rAAV transduction from the basolateral surface” value [2] is on record?
A: enhanced rAAV transduction from the basolateral surface

Q: With CC(C)C[C@H](N)C(=O)N[C@@H](C)C(=O)O [H-Leu-Ala-OH] (H-Leu-Ala-OH) as the compound, how does the “rAAV transduction from the basolateral surface” value [2] read?
A: enhanced rAAV transduction from the basolateral surface

Q: Which rAAV transduction [1] does the source give for Cl.N [NH4Cl] here?
A: significantly inhibited rAAV transduction

Q: CC[C@@]1(O)C(=O)OCc2c1cc1n(c2=O)Cc2cc3ccccc3nc2-1 [camptothecin] was tested. Which “increase in transduction efficiency” value [3] did it give?
A: 15 fold

Q: And the “dose dependence of transduction” value [3]?
A: dose-dependent increase in transduction

Q: What about the “rAAV transduction from the apical surface” value [2] of the same compound?
A: none of these agents facilitated rAAV transduction from the apical surface

Q: CCN(CC)CCCC(C)Nc1ccnc2cc(Cl)ccc12 (stereo not drawn) [chloroquine] was tested. Which rAAV transduction [1] did it give?
A: significantly inhibited rAAV transduction

Q: Which “increase in transduction efficiency” value [3] does the source give for N.N.[Cl][Pt][Cl] [cisplatin] here?
A: 16 fold

Q: How did the rAAV transduction [1] turn out when C=C1[C@@H](C)[C@H]2[C@H](Cc3ccccc3)NC(=O)[C@]23OC(=O)/C=C/[C@H](O)CCC[C@@H](C)C/C=C/[C@H]3[C@@H]1O [cytochalasin B] was run?
A: significant decrease in rAAV transduction

Q: COc1cccc2c1C(=O)c1c(O)c3c(c(O)c1C2=O)C[C@@](O)(C(C)=O)C[C@@H]3O[C@H]1C[C@H](N)[C@H](O)[C@H](C)O1 [daunarubicin] was tested. Which “order of potency among anthracyclines” value [3] did it give?
A: idarubicin>daunarubicin>epirubicin>doxorubicin

Q: With COc1cccc2c1C(=O)c1c(O)c3c(c(O)c1C2=O)C[C@@](O)(C(=O)CO)C[C@@H]3O[C@H]1C[C@H](N)[C@@H](O)[C@H](C)O1 [epirubicin] as the compound, how does the “order of potency among anthracyclines” value [3] read?
A: idarubicin>daunarubicin>epirubicin>doxorubicin

Q: Which results are given for CC[C@H](C)[C@H](NC(=O)[C@H]([C@@H](C)CC)N(C)C(C)=O)C(=O)N[C@H](C(=O)N[C@@H](CC(C)C)C(=O)[C@@]1(C)CO1)[C@@H](C)O [epoxomicin]?
A: increase in transduction efficiency [3]: ≤ 120 fold; dose dependence of transduction [3]: dose-dependent increase in transduction

Q: With COc1cc([C@@H]2c3cc4c(cc3[C@@H](O[C@@H]3O[C@@H]5CO[C@@H](C)O[C@H]5[C@H](O)[C@H]3O)[C@H]3COC(=O)[C@H]23)OCO4)cc(OC)c1O [etoposide] as the compound, how does the “rAAV transduction from the apical surface” value [2] read?
A: none of these agents facilitated rAAV transduction from the apical surface

Q: O=c1c(-c2ccc(O)cc2)coc2cc(O)cc(O)c12 [genistein] was tested. Which “rAAV transduction from the apical surface” value [2] did it give?
A: none of these agents facilitated rAAV transduction from the apical surface

Q: How did the “rAAV transduction from the apical surface” value [2] turn out when NC(=O)NO [hydroxyurea] was run?
A: none of these agents facilitated rAAV transduction from the apical surface

Q: With CC[C@H](C)C(=O)O[C@H]1C[C@@H](C)C=C2C=C[C@H](C)[C@H](CC[C@@H]3C[C@@H](O)CC(=O)O3)[C@H]21 [lovastatin] as the compound, how does the “result in cell line screening” value [3] read?
A: negative results

Q: With CCC(C)(C)C(=O)O[C@H]1C[C@@H](C)C=C2C=C[C@H](C)[C@H](CC[C@@H]3C[C@@H](O)CC(=O)O3)[C@H]21 [simvastatin] as the compound, how does the “increase in transduction efficiency” value [3] read?
A: 4 fold

Q: O=C(OC[C@H]1O[C@@H](OC(=O)c2cc(O)c(O)c(OC(=O)c3cc(O)c(O)c(O)c3)c2)[C@H](OC(=O)c2cc(O)c(O)c(OC(=O)c3cc(O)c(O)c(O)c3)c2)[C@@H](OC(=O)c2cc(O)c(O)c(OC(=O)c3cc(O)c(O)c(O)c3)c2)[C@@H]1OC(=O)c1cc(O)c(O)c(OC(=O)c2cc(O)c(O)c(O)c2)c1)c1cc(O)c(O)c(OC(=O)c2cc(O)c(O)c(O)c2)c1 [tannic acid] was tested. Which “increase in transduction efficiency” value [3] did it give?
A: 17 fold

Q: Which rAAV transduction [1] does the source give for CC[C@]1(O)C[C@@H]2CN(CCc3c([nH]c4ccccc34)[C@@](C(=O)OC)(c3cc4c(cc3OC)N(C)[C@H]3[C@@](O)(C(=O)OC)[C@H](OC(C)=O)[C@]5(CC)C=CCN6CC[C@]43[C@@H]65)C2)C1 [vinblastine, vinblastine sulfate] here?
A: little effect on rAAV transduction
